Laboratory results reported in article PMC11909324 (Journal of the Science of Food and Agriculture, 2024).

How the values were obtained:
xanthine oxidase (XO) [1] = target: T1, xanthine oxidase (XO) (Bos taurus, UniProt P80457); test: XO assay with xanthine as substrate (uric acid formation, HPLC-UV); format: biochemical, bovine; details: inhibitor 20 μmol L^−1; xanthine 5 μmol L^−1; read-out: decrease in uric acid production (inhibition of XO-catalyzed xanthine oxidation);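 further: incubations in 0.05 mol L^−1 sodium phosphate buffer, with uric acid and remaining xanthine both quantified by HPLC-UV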
T1 construct: XO (from bovine milk); purchased Merck (Darmstadt, Germany); host or cells: bovine milk (natural source)

xanthine oxidase (XO) [2] = target: T1, xanthine oxidase (XO); test: XO assay with 6MP as substrate (6-thiouric acid formation, HPLC-UV); format: biochemical, bovine; details: inhibitor 20 μmol L^−1; 6MP 5 μmol L^−1;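 further: incubation in 0.05 mol L^−1 sodium phosphate buffer, with 6MP and 6-thiouric acid quantified by HPLC-UV and conversion taken as the product share of substrate plus product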
[3] = humans; peroral high doses (0.5–5.0 g) of RES; cited from earlier work
[4] = cited from earlier work

T1 sequence (P80457 whole entry): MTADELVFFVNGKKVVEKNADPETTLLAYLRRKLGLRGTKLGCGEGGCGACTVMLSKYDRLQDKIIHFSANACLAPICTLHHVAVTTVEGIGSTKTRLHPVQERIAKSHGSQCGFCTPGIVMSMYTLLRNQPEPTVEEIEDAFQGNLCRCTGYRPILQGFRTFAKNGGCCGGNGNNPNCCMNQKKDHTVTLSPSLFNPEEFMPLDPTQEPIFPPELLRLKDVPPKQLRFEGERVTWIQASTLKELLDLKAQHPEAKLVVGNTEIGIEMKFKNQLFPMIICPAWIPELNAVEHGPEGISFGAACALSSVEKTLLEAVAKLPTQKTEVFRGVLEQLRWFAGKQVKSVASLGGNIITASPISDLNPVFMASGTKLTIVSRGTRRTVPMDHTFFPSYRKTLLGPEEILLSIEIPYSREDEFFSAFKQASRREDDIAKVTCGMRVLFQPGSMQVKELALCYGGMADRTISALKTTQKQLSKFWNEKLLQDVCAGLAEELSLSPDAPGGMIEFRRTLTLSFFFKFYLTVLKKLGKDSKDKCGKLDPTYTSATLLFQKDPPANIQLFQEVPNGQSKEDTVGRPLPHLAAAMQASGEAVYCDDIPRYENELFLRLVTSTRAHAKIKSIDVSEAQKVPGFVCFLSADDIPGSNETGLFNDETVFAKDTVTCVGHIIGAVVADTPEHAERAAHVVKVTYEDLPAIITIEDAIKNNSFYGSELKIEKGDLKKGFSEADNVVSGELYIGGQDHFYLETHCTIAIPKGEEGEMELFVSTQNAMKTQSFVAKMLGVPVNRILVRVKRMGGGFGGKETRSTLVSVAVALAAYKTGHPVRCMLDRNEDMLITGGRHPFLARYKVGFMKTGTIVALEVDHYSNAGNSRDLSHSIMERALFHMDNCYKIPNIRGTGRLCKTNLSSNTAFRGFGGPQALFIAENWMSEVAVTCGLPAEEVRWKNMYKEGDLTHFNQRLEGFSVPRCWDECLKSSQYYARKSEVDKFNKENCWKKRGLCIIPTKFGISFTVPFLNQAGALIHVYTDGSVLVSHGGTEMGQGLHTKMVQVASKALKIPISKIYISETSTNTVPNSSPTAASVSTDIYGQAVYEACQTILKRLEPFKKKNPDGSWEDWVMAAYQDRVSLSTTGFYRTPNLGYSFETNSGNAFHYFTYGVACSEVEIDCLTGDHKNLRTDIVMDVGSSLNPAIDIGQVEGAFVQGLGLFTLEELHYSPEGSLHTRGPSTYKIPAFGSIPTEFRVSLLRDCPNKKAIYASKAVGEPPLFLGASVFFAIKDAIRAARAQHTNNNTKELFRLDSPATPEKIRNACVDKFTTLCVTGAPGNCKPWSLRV

Row | Structure (SMILES) | inhibition at 20 µM (xanthine oxidase (XO) [1]) [%] | decrease in 6-thiouric acid formation (inhibition of XO-catalyzed 6MP oxidation) (xanthine oxidase (XO) [2]) | peak plasma concentrations [3] [µmol/L] | oral bioavailability [4]
1 | O=S(=O)(O)Oc1cc(O)cc(C=Cc2ccc(O)cc2)c1 [R3S, resveratrol‐3‐sulfate] | 27 | weak to moderate inhibitors | 10 to 20 | –
2 | Oc1ccc(/C=C/c2cc(O)cc(O)c2)cc1 [RES, resveratrol] | – | weak to moderate inhibitors | – | less than 1%
